Results taken from publication PMC4721062, “Oxadiazole-2-oxides may have other functional targets, in addition to SjTGR, through which they cause mortality in Schistosoma japonicum” (Parasites & Vectors, 2016).
Where two headings read alike, the source gives them in different places.

What was measured:
[1] = system: adult S. japonicum in mice; experiment: Treatment of infected mice at adult worm stage; format: in vivo, Schistosoma japonicum (ICR mice); conditions: for Number of eggs per gram of liver (Mean ± SD) / Number of worms (Mean ± SD) / Egg reduction rate / Worm reduction rate: mice, 10 mg/kg i.p. daily for 5 days from day 35 post-infection; for Number of eggs per gram of liver (Mean ± SD) / Number of worms (Mean ± SD): sacrificed day 42; for Egg reduction rate / Worm reduction rate: versus control
Experimental: (§1) The abdominal skin of each mouse (ICR, female, 22–24 g) was exposed to 20 S. japonica cercariae (as described above). The mice were intraperitoneally injected with 10 mg/kg oxadiazole-2-oxides daily for 5 days, beginning either 7 or 35 days post-infection. Control mice were treated with 10 mg/kg of the carrier medium. All mice were sacrificed 42 days post-infection. The worm burden of each mouse was confirmed by counting the number of worms observed from a portal vein perfusion. The mouse livers were digested overnight with 5 % potassium hydroxyl solution at 37 °C and the eggs in the liver tissue were counted under an inverted phase contrast microscope. The worm and egg reduction rates were calculated using the following formulas: Wormreductionrate%=meannumberofadultwormspermouseincontrolgroup−meannumberofadultwormspermouseinexperimentalgroup/meannumberofadultwormspermouseincontrolgroup. Eggreductionrate%=meannumberofeggspermouseincontrolgroup−meannumberofeggspermouseinexperimentalgroup/meannumberofeggspermouseincontrolgroup.

[2] = Cytotoxicity assay on Hela cells (MTT); format: cell-based; conditions: human
Experimental: Cytotoxicity assays were performed using Hela cells. Cells in the exponential growth phase were collected by centrifugation and a concentration of 4–5 × 10^4/mL was created. 100 μL of the cell suspension was added to each well of a 96-well plate and cultured overnight at 37 °C in a humid atmosphere with 5 % CO2. Oxadiazole-2-oxides (at 10, 20, 40, 80 and 160 μM) were added. Each concentration was assayed in triplicate, and control wells (no cells and no drugs) were assayed at the same time. The “no cell” control wells only contained RPMI 1640 medium, MTT, DMSO, and oxadiazole-2-oxides. The “no drug” control wells contained the Hela cells, RPMI 1640 medium, MTT and DMSO. The cells were cultured for 48 h at 37 °C in a humid atmosphere with 5 % CO2. Then, 20 μL of 5 mg/mL MTT was added to each well and the culture conditions were maintained for 4 h. After this point, the medium was removed and 150 μL DMSO was added into each well to dissolve any crystallisation. The value of absorbance at 570 nm of each well was measured (at 570 nm) with a microplate reader to assess the toxic effect of the oxadiazole-2-oxides on the vertebrate cells.

adult S. japonicum = experiment: microbe, parasite or virus in culture; format: cell-based; conditions: for mortality at 50 µM / killing at 25 µM / killing at 50 µM / killing at 100 µM / mortality at 25 µM / mortality at 10 µM / mortality at 100 µM: Schistosoma japonicum; for mortality at 50 µM / mortality at 25 µM / mortality at 10 µM / mortality at 100 µM: read-out: Mortality of adult worms; for killing at 25 µM / killing at 50 µM / killing at 100 µM / Killing activity 24hr / Killing activity 48hr / Killing activity 72hr: adult worms; for Killing activity 24hr / Killing activity 48hr / Killing activity 72hr: 10 μM
Summary of the method: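 Adult worm pairs recovered by portal perfusion from ICR mice 35 days after infection with 50 cercariae, cultured in RPMI 1640 (pH 7.5, 20 mM HEPES, 10% FBS) at 37 °C, 5% CO2. Oxadiazole-2-oxides at 10, 25, 50, 100 μM; motility and survival scored microscopically at 24, 48, 72 h, death being no movement over 2 min; three independent experiments averaged.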

[3] = system: juvenile S. japonicum in mice; experiment: Treatment of infected mice at juvenile worm stage; format: in vivo, Schistosoma japonicum (ICR mice); conditions: 10 mg/kg i.p. daily for 5 days from day 7 post-infection; for Number of eggs per gram of liver (Mean ± SD) / Number of worms (Mean ± SD): sacrificed day 42; for Egg reduction rate / Worm reduction rate: versus control, 10 mg/kg
Experimental: as §1

adult S. japonica = experiment: Activity against adult S. japonica in vitro with and without NO scavenger carboxy-PTIO; format: cell-based, Schistosoma japonicum; design: dose or concentration left out as unconfirmed; conditions: adult worms in vitro
Experimental: To assess the importance of NO production, the potassium salt of carboxy-PTIO, a NO scavenger, was dissolved in water and 100 mM was incubated with freshly perfused adult S. japonica in the presence or absence of […] oxadiazole-2-oxides. The worms’ mobility, tegumental alterations and parasite survival were monitored using an inverted microscope. The experiment was done in triplicate.
Fig. 4 Activity of oxadiazole-2-oxides against adult S. japonica in vitro, with and without carboxy-PTIO. Carboxy-PTIO was incubated with freshly perfused adult S. japonica at 100 mM in the presence and absence of […] oxadiazole-2-oxides. The worms’ mobility, tegumental alterations and survival rates were monitored under an inverted microscope. The experiment was done in triplicate. The percentage of adult worms that survived are shown (mean ± SD; n = 3)

S. mansoni = conditions: compared with 10 μM, 72 h data; cited from earlier work
[4] = 24 h, read-out: Killing activity 24hr
[5] = 48 h, read-out: Killing activity 48hr
[6] = 72 h, read-out: Killing activity 72hr

SMILES	Number of eggs per gram of liver (Mean ± SD) [1]	Number of worms (Mean ± SD) [1]	viability at 72 h, 80 µM [2] [%]	killing at 25 µM (adult S. japonicum; [4]) [%]	killing at 25 µM (adult S. japonicum; [5]) [%]	killing at 25 µM (adult S. japonicum; [6]) [%]	killing at 50 µM (adult S. japonicum; [4]) [%]	killing at 50 µM (adult S. japonicum; [5]) [%]	killing at 50 µM (adult S. japonicum; [6]) [%]	killing at 100 µM (adult S. japonicum; [4]) [%]	killing at 100 µM (adult S. japonicum; [5]) [%]	killing at 100 µM (adult S. japonicum; [6]) [%]	Killing activity 24hr (adult S. japonicum; 24 h)	Killing activity 48hr (adult S. japonicum; 48 h)	Killing activity 72hr (adult S. japonicum; 72 h)	Number of eggs per gram of liver (Mean ± SD) [3]	Number of worms (Mean ± SD) [3]	Worm reduction rate [3]	mortality at 10 µM (adult S. japonicum; 72 h) [%]	Mortality in adult worms of S. mansoni (S. mansoni) [%]	other results
N#Cc1c(-c2ccc(OC/C=C/CBr)cc2)no[n+]1[O-] [Compound 16]	6424.1 ± 1193.4 (P < 0.05^**)	3.7 ± 1.4 (P > 0.05^**)	89	50	75	100	100	100	100	100	100	100	n.e.	50.0%D	80.0%D	4,054.5 ± 1,322.1 (P > 0.05^**)	1.0 ± 0.5 (P > 0.05^**)	90.8 (P < 0.01^*) %	–	–	Reduction in the female worms ([1]; mice treated at adult worm stage (data not shown)): 44.7%; Egg reduction rate ([1]; 10 mg/kg): 20.0 (P > 0.05^*) %; Worm reduction rate ([1]; 10 mg/kg): 69.4 (P < 0.01^*) %; mortality at 50 µM (adult S. japonicum; 24 h): 100%; Egg reduction rate [3]: 49.5 (P < 0.01^*) %; Killing activity with versus without carboxy-PTIO (adult S. japonica): no differences in the killing activities
N#Cc1c(-c2ccc(Br)cc2)no[n+]1[O-] [Compound 7c]	7213.0 ± 2658.0 (P < 0.05^**)	12.0 ± 3.9 (P < 0.05^**)	66	77.8	100	100	100	100	100	100	100	100	n.e.	70.0%D	70.0%D	3,859.4 ± 3,749.4 (P > 0.05^**)	1.4 ± 0.8 (P > 0.05^**)	87.1 (P < 0.01^*) %	70 ± 7.1	100.0	Egg reduction rate [1]: 10.2 (P > 0.05^*) %; mortality at 25 µM (adult S. japonicum; 24 h): > 75%; mortality at 50 µM (adult S. japonicum; 24 h): 100%; Egg reduction rate [3]: 52.0 ( P > 0.05^*) %; Killing activity with versus without carboxy-PTIO (adult S. japonica): no differences in the killing activities
Cc1ccc(-c2no[n+]([O-])c2C#N)cc1 [Compound 7b]	–	–	–	100	100	100	100	100	100	100	100	100	16.7%D	50.0%D	83.3%D	–	–	–	83.3 ± 4.7	70.0	mortality at 25 µM (adult S. japonicum; 24 h): > 75%
COc1ccc(-c2no[n+]([O-])c2C#N)cc1 [Compound 7a]	–	–	–	88.9	100	100	87.5	100	100	100	100	100	70.0%D	100.0%D	100.0%D	–	–	–	100	100.0	mortality at 25 µM (adult S. japonicum; 24 h): > 75%
Cc1ccc(-c2no[n+]([O-])c2CO)cc1 [Compound 4b]	7007.8 ± 2420.2 (P < 0.05^**)	9.0 ± 3.8 (P < 0.05^**)	96	63.6	81.8	66.7	60	80	100	57.1	100	100	n.e.	n.e.	n.e.	8,669.2 ± 2,255.8 (P < 0.05^**)	1.8 ± 1.5 (P > 0.05^**)	83.1 (P < 0.01^*) %	–	–	Egg reduction rate [1]: 12.8 (P > 0.05^*) %; Worm reduction rate [1]: 25.0 (P > 0.05^*) %; mortality at 100 µM (adult S. japonicum; 24 h): 57.1 ± 2.1%; mortality at 100 µM (adult S. japonicum; 48 h): 100%
N#Cc1c(-c2ccc(O)cc2)no[n+]1[O-] [Compound 8]	–	–	–	50	66.7	100	77.8	88.9	100	100	100	100	n.e.	57.1%D	71.4%D	–	–	–	71.4 ± 0.9	100.0	–
